Reference: US11149064B2, “Vasoactive polypeptides for smooth muscle relaxation” (Vanderbilt University, priority 2016, dated 2021)
Entries after “also recorded” stand apart in the source; their conditions may differ. Non-standard residues stand in square brackets, D forms with d. No end group written: not given here. *: point of attachment. Palmitoyl = CCCCCCCCCCCCCCCC(=O)*; pS = N[C@@H](COP(=O)(O)O)C(=O)O

Columns and labels:
rat aortic smooth muscle = experiment: Vasorelaxation of pre-contracted, endothelium-denuded rat aortic rings in a muscle bath; format: cell-based; conditions: for relaxation of rat aortic smooth muscle: phenylephrine-precontracted, endothelium-denuded rat aorta, escalating doses of polypeptide 0.1 to 1.0 mM (FIG. 2); for potency in vasorelaxation after chemical or formulatory modification of VASP1: compared with VASP1 (FIGS. 6 and 7)
Method: (§1) Freshly isolated rat aorta denuded of endothelium were suspended in a muscle bath and force generated were recorded. Phenylephrine-precontracted tissues were treated with either sodium nitroprusside (1 nM) or escalating doses of the polypeptides indicated (0.1 to 1.0 mM). Contractile response was defined by stress, which was calculated using the force generated by the tissues. [10^5 Newtons (N)/m^2]−force (g)×0.0987/area, where area is equal to the wet weight [(mg)/length (mm at maximal length)] divided by 1.055). Percent relaxation were determined as a change to the maximal phenylephrine-induced contraction. Data are reported as mean responses±standard error of the mean. n=3-17.
FIGS. 4A and B show graphs illustrating the effects of nimodipine on polypeptide induced vasorelaxation in phenylephrine precontracted rat aortic smooth muscle. Freshly isolated rat aorta denuded of endothelium were suspended in a muscle bath and force generated were recorded. Phenylephrine-precontracted tissues were treated either with escalating doses of the calcium channel blocker nimodipine (NIMO; 0.01 to 1 uM), the VASP1 polypeptide (0.1 to 1.0 mM), nimodipine (0.1 μM) followed by the VASP1 polypeptide (0.25 mM) [NIMO/VASP1], the VASP1 polypeptide (0.25 mM) followed by nimodipine (0.1 μM) [VASP1/NIMO], or simultaneous addition of nimodipine (0.1 μM) plus the VASP1 polypeptide (0.25 mM) [NIMO+VASP1]. Contractile response was defined by stress, which was calculated using the force generated by the tissues. [10^5 Newtons (N)/m^2]=force (g)×0.0987/area, where area is equal to the wet weight [(mg)/length (mm at maximal length)] divided by 1.055). (A) Percent relaxation were determined as a change to the maximal phenylephrine-induced contraction. Data are reported as mean responses±standard error of the mean. n=3-4. (B). Representative tracings of force generated in response to phenylephrine, nimodipine and the VASP1 polypeptides.
Freshly isolated rat aorta denuded of endothelium were suspended in a muscle bath and force generated were recorded. (A) Endothelin 1 (ET)-precontracted tissues were treated either with escalating doses of the calcium channel blocker nimodipine (NIMO; 0.001 to 0.1 uM), the VASP1 polypeptide (0.1 to 1.0 mM). (B) ET-precontracted tissues were treated with VASP1 polypeptide alone (0.25 mM), nimodipine alone (0.01 or 0.1 uM), nimodipine (0.01 or 0.1 uM) followed by the VASP1 polypeptide (0.25 mM), [NIMO/VASP1], the VASP1 polypeptide (0.25 mM) followed by nimodipine (0.01 or 0.1 uM), [VASP1/NIMO], or simultaneous addition of nimodipine (0.1 uM) plus the VASP1 polypeptide (0.25 mM) [NIMO+VASP1]. Contractile response was defined by stress, which was calculated using the force generated by the tissues. [10^5 Newtons (N)/m^2]=force (g)×0.0987/area, where area is equal to the wet weight [(mg)/length (mm at maximal length)] divided by 1.055). (A) Percent relaxation were determined as a change to the maximal phenylephrine-induced contraction. Data are reported as mean responses±standard error of the mean. n=2-12.
as §1, with “bath,” for “bath”, “polypeptides or polypeptide-containing nanoparticles” for “polypeptides”, “(N)/m^2]=force” for “(N)/m^2]−force”, “n=2-6.” for “n=3-17.”
Freshly isolated rat aorta denuded of endothelium were suspended in a muscle bath and force generated were recorded. […]

airway smooth muscle = experiment: Relaxation of carbachol-precontracted porcine bronchial rings in a muscle bath; format: cell-based; conditions: polypeptides 0.1 to 1.0 mM (FIG. 8)
Method: (§2) Bronchial rings were isolated from fresh porcine lung, suspended in a muscle bath, and force generated were recorded. Carbachol-precontracted tissues were treated with escalating doses of the polypeptides indicated (0.1 to 1.0 mM). Contractile response was defined by stress, which was calculated using the force generated by the tissues. [10^5 Newtons (N)/m^2]=force (g)×0.0987/area, where area is equal to the wet weight [(mg)/length (mm at maximal length)] divided by 1.055). Percent relaxation were determined as a change to the maximal carbachol-induced contraction. Data are reported as mean responses±standard error of the mean. n=2-4.
as §2, with “Freshly isolated porcine bronchial” for “Bronchial”, “were” for “were isolated from fresh porcine lung,”, “bath.” for “bath, and force generated were recorded.”, “with” for “with escalating doses of”, “alone (−nife) or 0.1 uM nifedipine followed by the polypeptides (+nife).” for “indicated (0.1 to 1.0 mM).”, “n=1-2.” for “n=2-4.”
Bronchial rings were suspended in the muscle bath and equilibrated for 3 hours at a basal tension of 1 gram. Rings were then contracted with the agonist carbachol (150 nM) and then relaxed with cumulative doses of the polypeptides (0.1 to 1.0 mM).
Porcine bronchial rings were suspended in the muscle bath. Tissues were treated with channel blocker alone, polypeptide alone, or in combination. The results of these study are illustrated in FIG. 9.
Rat aortae were isolated from euthanized female Sprague-Dawley rats. Porcine bronchial rings were isolated from lung obtained from euthanized female Yorkshire pigs.

[1] = phenylephrine or endothelin-1 pre-contracted rat aortic rings

Substance | relaxation of rat aortic smooth muscle (rat aortic smooth muscle) | relaxation of airway smooth muscle (airway smooth muscle) | also measured
IRQTADRWRVSLDVNLTVK [SEQ ID NO: 4, peptide analogue of HSP27] | directly cause smooth muscle relaxation | directly cause smooth muscle relaxation | –
KLRKV(pS)K (KLRKV[pS]K) [SEQ ID NO: 9, control peptide without transduction domain] | do not directly cause relaxation; also recorded: exception | – | –
KLRKV(pS)KLTVK (KLRKV[pS]KLTVK) [SEQ ID NO: 8, phosphopeptide analogue of VASP] | directly cause smooth muscle relaxation | directly cause smooth muscle relaxation | –
YARAAARQARAA(pS)GVAVSDG (YARAAARQARAA[pS]GVAVSDG) [SEQ ID NO: 1, phosphopeptide analogue of cofilin] | directly cause smooth muscle relaxation | directly cause smooth muscle relaxation | –
YARAAARQARAA(pS)GVTVSDEVI (YARAAARQARAA[pS]GVTVSDEVI) [SEQ ID NO: 2, phosphopeptide analogue of cofilin] | directly cause smooth muscle relaxation | directly cause smooth muscle relaxation | –
YARAAARQARAIRQTADRWRVSLDVN [SEQ ID NO: 3, peptide analogue of HSP27] | directly cause smooth muscle relaxation | directly cause smooth muscle relaxation | –
YARAAARQARAK(pS)RVLKK (YARAAARQARAK[pS]RVLKK) [SEQ ID NO: 10, control peptide] | do not directly cause relaxation | – | relaxation of rat aortic smooth muscle (rat aortic smooth muscle; listed as scrVASP1): exception
YARAAARQARAKLRKV(pS)K (YARAAARQARAKLRKV[pS]K) [SEQ ID NO: 5, phosphopeptide analogue of VASP] | directly cause smooth muscle relaxation | directly cause smooth muscle relaxation | vasorelaxation in combination with calcium channel blocker nimodipine (rat aortic smooth muscle; phenylephrine or endothelin-1 pre-contracted rat aortic rings, VASP1 0.25 mM with nimodipine 0.01 or 0.1 uM (FIGS. 4A-5B)): works in concert with calcium channel blocker, nimodipine, to enhance vasorelaxation; relaxation of rat aortic smooth muscle (rat aortic smooth muscle; listed as VASP1): sequence specific
YARAAARQARAKLRKV(pS)KQEEA (YARAAARQARAKLRKV[pS]KQEEA) [SEQ ID NO: 6, phosphopeptide analogue of VASP] | directly cause smooth muscle relaxation | directly cause smooth muscle relaxation | –
YARAAARQARAKLRKV(pS)KQEEASG (YARAAARQARAKLRKV[pS]KQEEASG) [SEQ ID NO: 7, phosphopeptide analogue of VASP] | directly cause smooth muscle relaxation | directly cause smooth muscle relaxation | –
YARAAARQARA{K(palm)}GGKLRKV(pS)K (YARAAARQARAK(Palmitoyl)GGKLRKV[pS]K) [SEQ ID NO: 12] | – | – | potency in vasorelaxation after chemical or formulatory modification of VASP1 (rat aortic smooth muscle; [1]): directly cause smooth muscle relaxation with enhanced potency
YARAAARQARA{K(palm)}LRKV(pS)K (YARAAARQARAK(Palmitoyl)LRKV[pS]K) [SEQ ID NO: 11] | – | – | potency in vasorelaxation after chemical or formulatory modification of VASP1 (rat aortic smooth muscle; [1]): directly cause smooth muscle relaxation with enhanced potency
